In patent publication US20090311246A1, “Method of Enhancing Remyelination in Demyelinating Diseases of the Central Nervous System” (priority 2008, published 2009):

Columns and labels:
[1] = tested on: Rabbit Anti-SFV polyclonal antibody; experiment: Indirect ELISA of rabbit anti-SFV polyclonal IgG against viral and myelin antigens; assay type: binding; conditions: for Rabbit Anti-SFV Ab, OD at 490 nm: 10^−2 diluted, indirect ELISA; for Immunoreactivity of IgG fraction of serum from rabbits immunized with UV-inactivated SFV: ELISA; for OD Difference: Rabbit Anti-SFV Ab minus Normal Rabbit Serum
Procedure: The total IgG fraction was commercially prepared (Strategic Biosolutions, Ramona, Calif.) from pooled sera of 3 rabbits immunized once with UV-inactivated SFV (A774 strain) emulsified in CFA and boosted 3 times with antigen in IFA at weeks 3, 5, and 7. The IgG fraction of the pooled antisera was purified by ion-exchange chromatography and contained 8.7 mg IgG/ml of PBS. Antibody activities to SFV and peptides of SFV, to E2, and to recombinant ® MOG and its peptides were confirmed by ELISA. Normal rabbit IgG, isolated from pooled normal rabbit sera by ion-exchange chromatography (Signa Chemical Co., St. Louis, Mo.), was dissolved in saline. Protein concentration was determined by the Bradford assay (Sigma), using normal rabbit IgG as the standard. The IgG solutions were diluted to 3 mg protein/ml in saline and sterilized by passage through a 0.22 μm filter (Millipore Corp., Bedford, Mass.).
(§1) To measure the antibody response of both WT and γδ KO mice against SFV and two of the peptides of the SFV envelope protein, E2, an indirect ELISA was performed. Sera were pooled from 4-6 SFV-infected WT, and 3 KO, mice on days 0, 7, 14, 21 and 35 pi. Briefly, Immunolon 2HB 96 well microtiter plates (VWR, Bridge Port, N.J.) were coated with 1 μg/well of each antigen in 100 μl/well carbonate buffer overnight at room temperature. After washing, the plates were blocked and serum samples were added. […] After washing, biotinylated goat anti-mouse Igs (BD Pharmingen, Torreyana, Calif.), Strepavidin conjugated to Horse Radish Peroxidase (Vector Laboratories, Burlingame, Calif.), and OPD substrate (Sigma, St. Louis, Mo.) were used, as previously described (4, 9). […] Values were considered to be positive when they were >0.3 OD units and exceeded the mean value plus three standard deviations for antibody response on day 0 pi of mice of the same strain.
The polyclonal rabbit anti SFV antibody was commercially prepared (Strategic Biosolutions, Ramona, Calif.) from pooled sera of 3 rabbits, immunized once with UV-inactivated SFV (A774 strain) emulsified in CFA and boosted 3 times with antigen in IFA at weeks 3, 5, and 7.

Normal Rabbit Serum = experiment: Indirect ELISA of normal rabbit serum/IgG against viral and myelin antigens; assay type: binding; conditions: 10^−2 diluted
[2] = tested on: sera from SFV-infected B6 mice; assay type: binding; conditions: for Dh / D0 (Ratio): OD of highest day (day 15 or 21) over day 0, SFV-infected sera; for Dh−D0 (difference): OD of highest day minus day 0, SFV-infected sera; for Net change in the levels of antibody (ΔOD), D7-9 / Net change in the levels of antibody (ΔOD), D14-16 / Net change in the levels of antibody (ΔOD), D21-23 / Net change in the levels of antibody (ΔOD), D31-35: SFV-infected mice sera, day 0 OD subtracted; for Net change in the levels of antibody (ΔOD), D7-9: days 7-9 pi; for Net change in the levels of antibody (ΔOD), D14-16: days 14-16 pi; for Net change in the levels of antibody (ΔOD), D21-23: days 21-23 pi; for Net change in the levels of antibody (ΔOD), D31-35: days 31-35 pi; for Reactivity of sera from SFV-infected B6 mice with the antigen in ELISA: vs day 0
Procedure: as §1, with “strain. […]” for “strain.”
In some instances day 0 OD values were high, thus making the differences appear small. Therefore, to account for such discrepancy, we also determined the ratio of the highest day (day 15 or 21) over day 0.

B6 mice = conditions: ref. (4); cited from earlier work
[3] = tested on: sera from SFV-infected WT and γδ KO mice; experiment: ELISA of sera from SFV-infected WT and γδ KO mice against SFV, E2 peptides, PPD and rMOG; assay type: binding

GKDSHTRTTHYGS [MBP 56-68, mouse MBP 56-68 peptide, mimicked by E2 137-151]
Rabbit Anti-SFV Ab, OD at 490 nm [1]: 0.852 OD | Immunoreactivity of IgG fraction of serum from rabbits immunized with UV-inactivated SFV [1]: Cross-reactivity | OD Difference [1]: 0.691 OD | Normal Rabbit Serum, OD at 490 nm (Normal Rabbit Serum): 0.195 OD | Dh / D0 (Ratio) [2]: 5.37 | Dh−D0 (difference) [2]: 0.824 | Net change in the levels of antibody (ΔOD), D7-9 [2]: 1.10 ± 0.04 ΔOD | Net change in the levels of antibody (ΔOD), D14-16 [2]: 0.83 ± 0.10 ΔOD | Net change in the levels of antibody (ΔOD), D21-23 [2]: 1.07 ± 0.12 ΔOD | Net change in the levels of antibody (ΔOD), D31-35 [2]: 0.55 ± 0.18 ΔOD | Reactivity of sera from SFV-infected B6 mice with the antigen in ELISA [2]: reacted significantly

EGVNDNEEGFFSAR [FB, Fibrinopeptide B, 1-14, negative control peptide]
Dh / D0 (Ratio) [2]: 1.26 | Dh−D0 (difference) [2]: 0.068 | Net change in the levels of antibody (ΔOD), D7-9 [2]: 0.06 ± 0.07 ΔOD | Net change in the levels of antibody (ΔOD), D14-16 [2]: 0.05 ± 0.07 ΔOD | Net change in the levels of antibody (ΔOD), D21-23 [2]: 0.05 ± 0.08 ΔOD | Net change in the levels of antibody (ΔOD), D31-35 [2]: 0.08 ± 0.09 ΔOD

NH2-MEVGWYRSPFSRVVHLYRNGK-OH (H-MEVGWYRSPFSRVVHLYRNGK-OH) [MOG 35-55, myelin oligodendrocyte glycoprotein (MOG) peptide 35-55]
Rabbit Anti-SFV Ab, OD at 490 nm [1]: 0.184 OD | OD Difference [1]: 0.177 OD | Normal Rabbit Serum, OD at 490 nm (Normal Rabbit Serum): 0.007 OD | Dh / D0 (Ratio) [2]: 5.11 | Dh−D0 (difference) [2]: 0.362 | Net change in the levels of antibody (ΔOD), D7-9 [2]: 055 ± 0.08 ΔOD | Net change in the levels of antibody (ΔOD), D14-16 [2]: 0.78 ± 0.08 ΔOD | Net change in the levels of antibody (ΔOD), D21-23 [2]: 0.82 ± 0.05 ΔOD | Net change in the levels of antibody (ΔOD), D31-35 [2]: 0.78 ± 0.07 ΔOD

DEAELPSRISPGKNA [MOG 18-32]
Rabbit Anti-SFV Ab, OD at 490 nm [1]: 0.907 OD | Immunoreactivity of IgG fraction of serum from rabbits immunized with UV-inactivated SFV [1]: Cross-reactivity | OD Difference [1]: 0.647 OD | Normal Rabbit Serum, OD at 490 nm (Normal Rabbit Serum): 0.260 OD | Dh / D0 (Ratio) [2]: 3.2 | Dh−D0 (difference) [2]: 0.919 | Net change in the levels of antibody (ΔOD), D7-9 [2]: 0.34 ± 0.31 ΔOD | Net change in the levels of antibody (ΔOD), D14-16 [2]: 0.75 ± 0.23 ΔOD | Net change in the levels of antibody (ΔOD), D21-23 [2]: 0.91 ± 0.15 ΔOD | Net change in the levels of antibody (ΔOD), D31-35 [2]: 0.91 ± 0.36 ΔOD | Reactivity of sera from SFV-infected B6 mice with the antigen in ELISA [2]: reacted significantly

H-IQDTRNAVRACRIQYHHD-OH [E2 115-129, reference compound]
Histopathology after inoculation with the peptide (literature) (B6 mice): induced vaccuolation in myelin | Net change in the level of antibody, D0 WT ([3]; WT mice, day 0): 0 nano gr | Net change in the level of antibody, D7 WT ([3]; WT mice, day 7 pi, ± SD): 69 ± 29 nano gr | Net change in the level of antibody, D14 WT ([3]; WT mice, day 14 pi, ± SD): 83 ± 16 nano gr | Net change in the level of antibody, D21 WT ([3]; WT mice, day 21 pi, ± SD): 90 ± 20 nano gr | Net change in the level of antibody, D35 WT ([3]; WT mice, day 35 pi, ± SD): 73 ± 14 nano gr | Net change in the level of antibody, D0 KO ([3]; γδ KO mice, day 0): 0 nano gr | Net change in the level of antibody, D7 KO ([3]; γδ KO mice, day 7 pi, ± SD): 65 ± 35 nano gr | Net change in the level of antibody, D14 KO ([3]; γδ KO mice, day 14 pi, ± SD): 34 ± 24 nano gr | Net change in the level of antibody, D21 KO ([3]; γδ KO mice, day 21 pi, ± SD): 55 ± 20 nano gr | Net change in the level of antibody, D35 KO ([3]; γδ KO mice, day 35 pi, ± SD): 29 ± 22 nano gr | Reactivity of sera from SFV-infected γδ KO mice ([3]; γδ KO, sera 1:80): lower, but not significantly different than WT | Dh / D0 (Ratio) [2]: 5.28 | Dh−D0 (difference) [2]: 0.458 | Net change in the levels of antibody (ΔOD), D7-9 [2]: 0.82 ± 0.40 ΔOD | Net change in the levels of antibody (ΔOD), D14-16 [2]: 0.91 ± 0.14 ΔOD | Net change in the levels of antibody (ΔOD), D21-23 [2]: 0.95 ± 0.22 ΔOD | Net change in the levels of antibody (ΔOD), D31-35 [2]: 0.85 ± 0.07 ΔOD | Reactivity of sera from SFV-infected B6 mice with the antigen in ELISA [2]: reacted

THYGSLPQKSQR (GSGKDSHTRTTH) [MBP 64-75, myelin basic protein peptide 64-75]
Dh / D0 (Ratio) [2]: 2.93 | Dh−D0 (difference) [2]: 0.375

B1: Bovine MBP: bovine myelin basic protein (protein)
chain: AAQKRPSQRSKYLASASTMDHARHGFLPRHRDTGILDSLGRFFGSDRGAPKRGSGKDGHHAARTTHYGSLPQKAQGHRPQDENPVVHFFKNIVTPRTPPPSQGKGRGLSLSRFSWGAEGQKPGFGYGGRASDYKSAHKGLKGHDAQGTLSKIFKLGGRDSRSGSPMARR
Rabbit Anti-SFV Ab, OD at 490 nm [1]: 0.622 OD | OD Difference [1]: 0.339 OD | Normal Rabbit Serum, OD at 490 nm (Normal Rabbit Serum): 0.283 OD

B2: MBP Protein: myelin basic protein (protein, UniProt P02686 1-304, looked up)
Myelin basic protein: MGNHAGKRELNAEKASTNSETNRGESEKKRNLGELSRTTSEDNEVFGEADANQNNGTSSQDTAVTDSKRTADPKNAWQDAHPADPGSRPHLIRLFSRDAPGREDNTFKDRPSESDELQTIQEDSAATSESLDVMASQKRPSQRHGSKYLATASTMDHARHGFLPRHRDTGILDSIGRFFGGDRGAPKRGSGKDSHHPARTAHYGSLPQKSHGRTQDENPVVHFFKNIVTPRTPPPSQGKGRGLSLSRFSWGAEGQRPGFGYGGRASDYKSAHKGFKGVDAQGTLSKIFKLGGRDSRSGSPMARR
Dh / D0 (Ratio) [2]: 2.42 | Dh−D0 (difference) [2]: 0.967 | Net change in the levels of antibody (ΔOD), D7-9 [2]: 0.53 ± 0.11 ΔOD | Net change in the levels of antibody (ΔOD), D14-16 [2]: 1.04 ± 0.24 ΔOD | Net change in the levels of antibody (ΔOD), D21-23 [2]: 1.12 ± 0.31 ΔOD | Net change in the levels of antibody (ΔOD), D31-35 [2]: 1.00 ± 0.32 ΔOD | Reactivity of sera from SFV-infected B6 mice with the antigen in ELISA [2]: reacted significantly

B3: rMOG: recombinant MOG (protein, UniProt Q16653 30-247, looked up)
Myelin-oligodendrocyte …: GQFRVIGPRHPIRALVGDEVELPCRISPGKNATGMEVGWYRPPFSRVVHLYRNGKDQDGDQAPEYRGRTELLKDAIGEGKVTLRIRNVRFSDEGGFTCFFRDHSYQEEAAMELKVEDPFYWVSPGVLVLLAVLPVLLLQITVGLIFLCLQYRLRGKLRAEIENLHRTFDPHFLRVPCWKITLFVIVPVLGPLVALIICYNWLHRRLAGQFLEELRNPF
Rabbit Anti-SFV Ab, OD at 490 nm [1]: 0.359 OD | OD Difference [1]: 0.146 OD | Reactivity of sera from both SFV-infected WT and KO groups ([3]; WT and KO, days 7 to 35 pi): twice as the background level | Normal Rabbit Serum, OD at 490 nm (Normal Rabbit Serum): 0.213 OD

B4: MOG Protein: myelin oligodendrocyte glycoprotein (protein, UniProt Q16653 30-247, looked up)
Myelin-oligodendrocyte …: B3 Myelin-oligodendrocyte …
Dh / D0 (Ratio) [2]: 4.1 | Dh−D0 (difference) [2]: 0.89 | Net change in the levels of antibody (ΔOD), D7-9 [2]: 0.47 ± 0.21 ΔOD | Net change in the levels of antibody (ΔOD), D14-16 [2]: 0.84 ± 0.18 ΔOD | Net change in the levels of antibody (ΔOD), D21-23 [2]: 0.91 ± 0.11 ΔOD | Net change in the levels of antibody (ΔOD), D31-35 [2]: 0.96 ± 0.07 ΔOD | Reactivity of sera from SFV-infected B6 mice with the antigen in ELISA [2]: reacted significantly
